Test [1] deals with acetic acid induced writhes. Description: Acetic acid writhing. The following applies: i.p., 30 minutes before, vehicle control 25.2 ± 2.2. The class given is in vivo, ICR-strain male mouse. The method, then: This test was carried out referring to the methods of Inoue, K., Motonaga, A. and Nishimura, T. [Arzneimittel Forshung/Drug Research 41 (1): 235-239 (1991)] and of Murata, T., et al. [Nature 388: 678-682 (1997)]: 7.5 mL/kg of a 0.9% aqueous solution of acetic acid was injected intraperitoneally into an ICR-strain male mouse (6 to 8 weeks old). The number of induced writhes (characteristic behavior of contracting the abdomen, twisting the body and/or extending the hind legs in agony) was counted in a period between 10 minutes and 20 minutes after the injection. A compound of the present invention was homogeneously suspended in 2% Tween 80/saline for injection use and injected intraperitoneally 30 minutes before the induction of stimulation by the acetic acid injection. Alternatively the compound was homogeneously suspended in 2% Tween 80/distilled water and orally administered an hour before the stimulation induction by the acetic acid injection. The analgesic activity of the compound of the present invention was evaluated on the basis of how many writhes were suppressed by the administration. Indomethacin or aspirin was administered as the positive control.
(Writhing tests count abdominal constrictions after an irritant is injected.)

In test [2] the test system is mouse ear edema induced by TPA. Type of test: in vivo, ICR-strain male mouse. The following applies: topical, measured 6 hours after TPA. The method, then: This test was carried out referring to the methods of Carlson, R. P., et al. [Agents and Actions 17 (2): 197-204 (1985)] and of Chang, J., et al. [European Journal of Pharmacology 142: 197-205 (1987)]: 5 μg/20 μL of TPA (Sigma Chemical Co., Ltd.) dissolved in ethanol was applied on the anterior and posterior surfaces of the right ear of an ICR-strain male mouse (6 to 7 weeks old). The thickness of a specific area of each of the ears was measured 3 times by a digimatic micrometer 6 hours after the application. The mean values were calculated. Ear edema was determined by subtracting the mean thickness of the non-treated left ear from that of the TPA-applied right ear. A topical application activity was evaluated in a way that an acetone solution or a 0.1% Tween 80/acetone solution of a compound of the present invention was applied on the anterior and posterior surfaces of the right ear 30 minutes before and 15 minutes after the application of TPA. […] An oral administration activity was evaluated by forced oral administration of a suspension of a compound of the present invention in 2% Tween 80/distilled water an hour before applying TPA. […]

Molecules are shown by their SMILES. Like-named read-outs stand apart in the source and are kept apart here.

On to `CC(=O)Oc1ccccc1C(=O)O` [Aspirin, aspirin], for which the “No. of writhes (mean ± S.E.)” value in test [1] (30 mg/kg) turned out to be 9.5 ± 2.0.

Regarding `CC(=O)OCC(=O)[C@@]1(O)[C@H](C)C[C@H]2[C@@H]3CCC4=CC(=O)C=C[C@]4(C)[C@@]3(F)[C@@H](O)C[C@@]21C` [DEX-Ac, dexamediasone-21-acetate], in test [2] (1 mg/20 μL/ear × 2), the “Ear edema inhibition (%)” value amounted to 79.6%.

For the molecule `COc1ccc2c(c1)c(CC(=O)O)c(C)n2C(=O)c1ccc(Cl)cc1` [Indomethacin, indomethacin], the “Ear edema inhibition (%)” value in test [2] (3 mg/40 μL/ear × 2) came out at 63.5%. Besides, the “No. of writhes (mean ± S.E.)” value in test [1] (3 mg/kg) amounted to 13.8 ± 3.0; in test [1] (10 mg/kg), 4.8 ± 0.9.

The values are drawn from patent US20050032858A1, “Novel heterocyclic compound and anti-inflamatory agent” (priority 2001, published 2005).
